Where two headings read alike, the source gives them in different places.

Data on 2 compounds can be found in publication PMC5503785 (Journal of clinical pharmacology, 2017).

Data set [1] is classed as in vivo, human. Particulars: for ω CLR/F (L·h^−1): between-subject variability; for increase in veliparib exposure: covariate model.
Data set [2] relates to PARP. Particulars: cited from earlier work.
The conditions of data set [3]: fixed in model; fraction renally excreted; cited from earlier work.
In a further data set the test system is CYP2D6. The following applies: in vitro study; cited from earlier work.
For data set [4] the following is noted: PBPK simulations, cited from earlier work.
The conditions of data set [5]: cited from earlier work.
The test system of data set [6] is PARP.
Data set [7] relates to PARP. The following applies: phase 0 study, single dose of veliparib; cited from earlier work.
Where [8] appears, read: bootstrap median, 250 replicates.
Setting [9] is: analysis by Li et al, one-compartment model.
Setting [10] is: population PK analysis by Salem et al, one-compartment model.
Where [11] appears, read: previously reported, based on NCA.

In data set [1] (setting [8]), `CC1(c2nc3c(C(N)=O)cccc3[nH]2)CCC(=O)N1` (centres unmarked) [M8] came in with a CLmet of 22.7 L/h, a Qmet of 29.0 L/h, a Vc_met of 23.5 L and a Vp_met of 51.3 L. For the same compound, in data set [1] (final model estimate), the CLmet was 22.8 L/h and the Qmet is 29.0 L/h. In addition, in data set [1] (final model estimate, metabolite central volume), the Vc_met is 23.6 L. Moreover, the Vp_met in data set [1] (final model estimate, metabolite peripheral volume) is 51.4 L. Further, the “potency compared to veliparib (fold less potent)” value in the data set on PARP [2] is reported as “approximately 5 fold”.
Regarding `C[C@]1(c2nc3c(C(N)=O)cccc3[nH]2)CCCN1` [veliparib, 2-[(R)-2-methylpyrrolidin-2-yl]-1H-benzimidazole-4-carboxamide], the frenal in data set [3] was 0.7 (fix). The “share of overall veliparib metabolism accounted for by CYP2D6” value with CYP2D6 is listed as ~ 72%. The “higher exposure versus extensive metabolizers” value in data set [4] (CYP2D6 poor metabolizers (PM)) is on record as ~ 20%. Also, in data set [4] (CYP2D6 ultra-extensive metabolizers (UM)), the “lower exposure versus extensive metabolizers” value is given as ~ 20%. The “expected "true" fraction converted to M8” value in data set [1] (30% non-renal elimination * 72% CYP2D6 share) came out at 22%. For the same compound, the “accumulation on chronic dosing” value in data set [1] (NCA approach, within dose range tested (50 to 500 mg b.i.d.)) was “Negligible accumulation”. In addition, the “ω CLR/F (L·h^−1)” value in data set [1] (bootstrap median) and in data set [1] (final model estimate) was 34.7% throughout. The CL/F in data set [1] (setting [8]) is 17.3 L/h; in data set [5] (setting [9]) it was 13.3 L/h; in data set [5] (setting [10]), 20.9 L/h; in data set [5] (setting [11]), 18 L/h. The Ka in data set [1] (setting [8]) was 2.02 h⁻¹; in data set [1] (final population PK model estimate, oral veliparib) it was 2.02 h⁻¹. The “LBM effect on Vc/F, power_LBM” value is recorded as 1.21 in data set [1] (setting [8]) and 1.21 in data set [1] (final model estimate, covariate exponent). In addition, the Q/F in data set [1] (setting [8]) and in data set [1] (final model estimate) was 17.9 L/h in each case. Moreover, the Vc/F in data set [1] (setting [8]) is reported as 99.1 L. In data set [1] (setting [8]), the Vp/F worked out at 47.5 L. Moreover, the tlag is 0.270 h in data set [1] (setting [8]) and 0.272 h in data set [1] (final model estimate). For the same compound, the results for the “increase in veliparib exposure” value in data set [1] (mild renal function impairment (~25% decrease in CLCR)) and in data set [1] (moderate renal function impairment (~50% decrease in CLCR)) were ~ 10% and ~ 20%, respectively. Moreover, in data set [1] (dose level from 50 to 500 mg), the dose proportionality entry is given as “supported”. Also, the “Vc/F (central volume of distribution)” value in data set [1] (final model estimate, typical subject LBM 48 kg) is recorded as 99.2 L. The “CL/F (total clearance, CLR/F + CLNR/F)” value in data set [1] (final model estimate, typical subject LBM 48 kg, CLCR 95 mL/min) was 17.3 L/h. Moreover, the fm in data set [1] (fixed in model, fraction metabolized to M8 assumed as 1−frenal) is 0.3 (fix). The Vd/F in data set [1] (human, plasma, oral, Vd/F (=Vc/F+ Vp/F), final model, standardized to 48 kg LBM and 95 mL/min CLCR) was 147 L; in data set [5] (setting [9]), 126 L; in data set [5] (setting [10]), 173 L; in data set [5] (setting [11]) it was 145 L. Further, the “contribution of CYP2D6 metabolism to veliparib total clearance” value in data set [1] (worked out from non-renal fraction and CYP2D6 share) is given as ~ 22%. Moreover, in the data set with PARP [6] (50/50 mg dose level b.i.d., PBMC), the “Inhibition of PAR compared with pre-dose baseline” value is ~ 50%. In the data set with PARP [6] (500/500 mg dose level b.i.d., PBMC), the “Inhibition of PARP compared with pre-dose baseline” value is reported as ~ 70%. Besides, in the data set with PARP [6] (PBMC, estimated with low precision), the “IC50 for PAR reduction (Emax model, veliparib plasma concentration as driver)” value was 0.03 µg/mL. For the same compound, in the data set on PARP [6] (dose levels ranging from 50 to 500 mg), the “inhibition of PAR levels in PBMCs” value is “At least 50%”. Further, the “inhibition of PAR levels in PBMC” value with PARP [7] is “Significant inhibition”.

By CL/F is commonly meant the apparent clearance, not corrected for the fraction that reaches the circulation. Usually Vd/F stands for the apparent distribution volume after extravascular dosing.
